In ChEMBL document CHEMBL4138123, “Design, synthesis and biological evaluation of novel pyrazolochalcones as potential modulators of PI3K/Akt/mTOR pathway and inducers of apoptosis in breast cancer cells” (Eur J Med Chem, 2017) one finds Activity, Flu intensity and viability data, which are given here for 5 compounds.

Test [1] concerns MCF7. Put plainly: Downregulation of Akt protein expression in human MCF7 cells at 2 uM after 48 hrs by Alexa/DAPI staining-based immunofluorescence analysis. The class given is functional, cell-based.
Test [2] concerns MCF7. Kind of test: Downregulation of Akt protein expression in human MCF7 cells at 2 uM after 24 hrs by Western blot analysis. The class given is functional, cell-based.
The subject of test [3] is MCF7. Put plainly: Downregulation of PI3K protein expression in human MCF7 cells at 2 uM after 24 hrs by Western blot analysis. Type of test: functional, cell-based. On the technique in general: Immunoblotting shows a protein as a band on a membrane.
Test [4] concerns MCF7. Put plainly: Induction of apoptosis in human MCF7 cells assessed as early apoptotic cells at 2 uM after 24 hrs by Annexin-V FITC/propidium iodide staining-based FACS analysis (reference value: 0.5%). Type of test: functional.
Test [5] concerns MCF7. Put plainly: Upregulation of PTEN protein expression in human MCF7 cells at 2 uM after 24 hrs by Western blot analysis. Type of test: functional, cell-based.
Test [6] concerns MCF7. Put plainly: Upregulation of TP53 mRNA expression in human MCF7 cells at 2 uM after 48 hrs by qRT-PCR analysis. Type of test: functional, cell-based. A general note: Quantitative PCR measures a nucleic acid by following its amplification.
For test [7], the system named is MCF7. Kind of test: Cell cycle arrest in human MCF7 cells assessed as accumulation at S phase at 2 uM after 48 hrs by flow cytometric analysis (reference value: 57.7%). Type of test: functional. (In flow cytometry, cells or beads pass a laser one at a time.)
The test system of test [8] is MCF7. Kind of test: Induction of intrinsic apoptosis in human MCF7 cells assessed as effect on mitochondrial membrane depolarization by measuring mean fluorescence intensity at 2 uM after 18 hrs by DiOC6 staining-based FACS analysis (reference value: 463). Type of test: functional.
Test [9] deals with MCF7. Put plainly: Cell cycle arrest in human MCF7 cells assessed as accumulation at G2/M phase at 2 uM after 48 hrs by flow cytometric analysis (reference value: 8.1%). The class given is functional.
The subject of test [10] is MCF7. Kind of test: Upregulation of PTEN mRNA expression in human MCF7 cells at 2 uM after 48 hrs by qRT-PCR analysis. The class given is functional, cell-based.
For test [11], the system named is MCF7. Kind of test: Induction of apoptosis in human MCF7 cells assessed as viable cells at 2 uM after 24 hrs by Annexin-V FITC/propidium iodide staining-based FACS analysis (reference value: 93.9%). Type of test: functional. The note with it: MCF7, 24 h, read-out: Activity.
Test [12] has as its system MCF7. Kind of test: Induction of apoptosis in human MCF7 cells assessed as late apoptotic cells at 2 uM after 24 hrs by Annexin-V FITC/propidium iodide staining-based FACS analysis (reference value: 5.4%). The class given is functional.
Test [13] deals with MCF7. Put plainly: Cell cycle arrest in human MCF7 cells assessed as accumulation at G0/G1 phase at 2 uM after 24 hrs by flow cytometric analysis (reference value: 18.4%). The class given is functional.
For test [14], the system named is MCF7. Kind of test: Cell cycle arrest in human MCF7 cells assessed as accumulation at G0/G1 phase at 2 uM after 48 hrs by flow cytometric analysis (reference value: 34.2%). Type of test: functional.
Test [15] relates to MCF7. Kind of test: Downregulation of PI3K mRNA expression in human MCF7 cells at 2 uM after 48 hrs by qRT-PCR analysis. The class given is functional, cell-based.
Test [16] has as its system MCF7. Kind of test: Induction of intrinsic apoptosis in human MCF7 cells assessed as effect on mitochondrial membrane depolarization at 2 uM after 18 hrs by DiOC6 staining-based FACS analysis (reference value: 2%). The class given is functional.
Test [17] has as its system MCF7. Put plainly: Induction of intrinsic apoptosis in human MCF7 cells assessed as effect on mitochondrial membrane depolarization at 2 uM after 5 hrs by DiOC6 staining-based FACS analysis relative to control. The class given is functional.

SMILES strings stand for the structures. The source made the active and inactive calls. No cut-off for these calls is given here.

With `COc1ccc(-c2cc(/C=C/C(=O)c3ccc(OC)c(OC)c3)[nH]n2)cc1`, the outcome in the test on MCF7 [1], in the test on MCF7 [2], with MCF7 [3], with MCF7 [5], in the test with MCF7 [6] and in the test with MCF7 [10] was Active. Moreover, the outcome in the test on MCF7 [15] was Active. The Activity with MCF7 [4] stood at 1.1%; in the test with MCF7 [7] it was 38.9%; in the test with MCF7 [9], 16.5%; with MCF7 [12] it was 4.4%; in the test with MCF7 [13], 15.3%; with MCF7 [14], 44.6%. Besides, the Activity in the test with MCF7 [16] is reported as 26%. Further, the Flu intensity with MCF7 [8] came to 355. For the same compound, the viability at 2 µM with MCF7 [11] was found to be 93.8%.
Consider `COc1cc(C(=O)/C=C/c2cc(-c3cc(OC)c(OC)c(OC)c3)n[nH]2)cc(OC)c1OC`, for which the result in the test on MCF7 [1], in the test with MCF7 [2], in the test with MCF7 [3], in the test on MCF7 [5], in the test on MCF7 [6] and in the test on MCF7 [10] was Active. For the same compound, in the test on MCF7 [15], the outcome was Active. Also, the Activity with MCF7 [4] was found to be 3.1%; in the test on MCF7 [7] it was 33%; with MCF7 [9] it was 4.96%; in the test on MCF7 [12], 11.2%; with MCF7 [13], 16.6%; with MCF7 [14] it was 62%. Besides, in the test with MCF7 [16], the Activity was determined as 1%. Also, in the test on MCF7 [8], the Flu intensity is on record as 637. In the test with MCF7 [11], the viability at 2 µM is 84.6%.
On to `COc1ccc(C(=O)/C=C/c2cc(-c3cc(OC)c(OC)c(OC)c3)n[nH]2)cc1OC`, for which the outcome in the test with MCF7 [1], with MCF7 [2], in the test with MCF7 [3], in the test on MCF7 [5], in the test on MCF7 [6] and in the test with MCF7 [10] was Active. Further, the result with MCF7 [15] was Active. Also, the Activity with MCF7 [4] was found to be 1.4%; with MCF7 [7] it was 43%; in the test on MCF7 [9], 13.1%; with MCF7 [12], 4.2%; in the test with MCF7 [13] it was 30.8%; in the test with MCF7 [14], 43.9%. Also, the Activity in the test on MCF7 [16] was found to be 42%. The Flu intensity in the test on MCF7 [8] was 294. In the test on MCF7 [11], the viability at 2 µM worked out at 94.3%.
Consider `COc1ccc(C(=O)/C=C/c2cc(-c3cc(OC)c(OC)c(OC)c3)n[nH]2)cc1`, for which the result in the test on MCF7 [1], in the test with MCF7 [2], in the test with MCF7 [3], in the test on MCF7 [5], in the test with MCF7 [6] and with MCF7 [10] was Active. The outcome in the test with MCF7 [15] was Active.
As to `COc1cc(C(=O)/C=C/c2cc(-c3ccc4c(c3)OCO4)n[nH]2)cc(OC)c1OC`, the result with MCF7 [1], with MCF7 [2], with MCF7 [3], in the test with MCF7 [5], with MCF7 [6] and with MCF7 [10] was Active. Besides, the outcome in the test on MCF7 [15] was Active. The Activity in the test with MCF7 [4] is 0.7%; in the test on MCF7 [17], 3.4%; in the test on MCF7 [7], 59.1%; in the test on MCF7 [9], 1.98%; in the test with MCF7 [12] it was 8.4%; in the test with MCF7 [13], 35.4%. In addition, the Activity in the test on MCF7 [14] turned out to be 39%; in the test with MCF7 [16] it was 26%. Also, the Flu intensity in the test with MCF7 [8] was 313. The viability at 2 µM in the test on MCF7 [11] was 89.2%.
